In patent publication EP3002286B1, “PREPARATION METHOD FOR POLYMORPHIC 6-(4-CHLOROPHENOXY)-TETRAZOLO[5,1-A]PHTHALAZINE AND USE THEREOF” (Jilin Yinglian Shangde Science and Technology Development …, priority 2014, dated 2015):

Columns and labels:
[1] = tested on: maximal electroshock seizure; assay: Maximal electroshock (MES) test; assay type: in vivo; settings: mice; for ED50: Mus musculus, po; for ED50 / ED50, MES: p.o (intragastrically, i.g.), effect against electroshock seizure
Method: Maximal electroshock (MES) test is an ideal animal model for evaluating a compound having a potential anti-epileptic effect, and if the compound can be applied against the maximal electroshock seizure, then it is likely to be further developed as a drug for treatment of grand mal clinically. Each of the four crystalline forms of this invention was intragastrically (i.g.) administered to mice respectively, each median effective dose (ED50) for the effect against electroshock seizure was measured, and each anti-convulsion effect was assessed. Table 3 Comparison of the pharmacological effect of the anti-convulsion of the crystalline forms (mg/kg, p.o)

[2] = Comparison of solubility of the crystalline forms in water (UV absorbance of saturated solution); assay type: physicochemical; settings: for Absorbance (Abs): saturated water solution (10mg in 1ml of water, stirred 1 hour, filtered), diluted 10 times, ultraviolet spectrophotometer; for Solubility relationship with respect to Form A: water, concentration ratio from absorbance according to the Lambert-Beer law
Method: 10mg of 6-(4-chlorophenoxy)-tetrazolo[5,1-a]phthalazine in each of the four crystalline forms was dissolved into 1ml of water, respectively, and the mixture was stirred for 1 hour so as to reach a solubility equilibrium with a supersaturated state being kept, and then the resultant mixture was filtered to give a clear and saturated water solution for each of the crystalline forms, respectively. Then, each solution was diluted 10 times, and absorbance thereof was measured using a ultraviolet spectrophotometer, and then the concentration ratio of 6-(4-chlorophenoxy)-tetrazolo[5,1-a]phthalazine in each solution could be determined according to the Lambert-Beer law, so as to obtain the solubility relationship among the four crystalline forms (see Table 2 for results). Table 2 Comparison of solubility of the crystalline forms

[3] = Stability of the crystalline forms (suspension balance), product form decided by XRPD; assay type: physicochemical; settings: suspension time 2 days
Method: 20mg of crystalline form A and 20mg of crystalline form B were mixed, then placed into 1ml of methanol as a solvent, followed by mixing the resultant suspension with a magnetic stirrer at a rotational speed of 100 rpm for two days. And then, the suspension was filtered, and the product obtained was washed with a small amount of methanol, followed by drying at room temperature to give a solid, which was analyzed with XRPD to decide the crystalline form of the product. Other sample mixtures were also shown in Table 1 (see Table 1 for results). Table 1 Comparison of the stability of the crystalline forms (suspension balance)

| Absorbance (Abs) [2] | Solubility relationship with respect to Form A [2] | Structure (SMILES) | ED50, MES [1] | also measured |
| --- | --- | --- | --- | --- |
| – | – | NC(=O)N1c2ccccc2C=Cc2ccccc21 [Carbamazepine, reference compound] | – | ED50 [1]: 15.4 mg/kg |
| 0.0407 Abs | – | Clc1ccc(Oc2nn3nnnc3c3ccccc23)cc1 [Crystalline form A, 6-(4-chlorophenoxy)-tetrazolo[5,1-a]phthalazine] | – | ED50 [1]: 15.6 mg/kg |
| 0.279 Abs | 6.8 times | Clc1ccc(Oc2nn3nnnc3c3ccccc23)cc1 [Crystalline form B, 6-(4-chlorophenoxy)-tetrazolo[5,1-a]phthalazine] | 9.2 mg/kg | – |
| 0.326 Abs | 8.0 times | Clc1ccc(Oc2nn3nnnc3c3ccccc23)cc1 [Crystalline form C, 6-(4-chlorophenoxy)-tetrazolo[5,1-a]phthalazine] | 8.5 mg/kg | water solubility (in words) ([2]; comparison among the crystalline forms): best water solubility; anti-convulsion effect (in words) ([1]; comparison among the crystalline forms, intragastrically administered): strongest anti-convulsion effect |
| 0.134 Abs | 3.3 times | Clc1ccc(Oc2nn3nnnc3c3ccccc23)cc1 [Crystalline form D, 6-(4-chlorophenoxy)-tetrazolo[5,1-a]phthalazine] | 12.7 mg/kg | – |
| – | – | Clc1ccc(Oc2nn3nnnc3c3ccccc23)cc1 [Form A + Form B, 6-(4-chlorophenoxy)-tetrazolo[5,1-a]phthalazine] | – | Crystalline form of the product ([3]; solvent for suspension Methanol): Form A |
| – | – | Clc1ccc(Oc2nn3nnnc3c3ccccc23)cc1 [Form A + Form C, 6-(4-chlorophenoxy)-tetrazolo[5,1-a]phthalazine] | – | Crystalline form of the product ([3]; solvent for suspension Methyl ethyl ketone): Form A |
| – | – | Clc1ccc(Oc2nn3nnnc3c3ccccc23)cc1 [Form A + Form D, 6-(4-chlorophenoxy)-tetrazolo[5,1-a]phthalazine] | – | Crystalline form of the product ([3]; solvent for suspension Nitromethane + n-hexane): Form A |
